Earlier results as cited in US9044531B2, “Vascular closure device” (Cordis Corporation, priority 2007, dated 2015).

System: S. aureus
Conditions: measured in a suitable growth medium; Bhargava et al., American Journal of Infection Control, June 1996

## Oc1cc(Cl)ccc1Oc1ccc(Cl)cc1Cl [2,4,4′-trichloro-2′-hydroxydiphenyl ether]
  minimum inhibitory concentration (MIC) against S. aureus: 0.01 ppm
